{
  "source": "patent US20150309031A2",
  "about": "“COMPOSITIONS AND METHODS FOR PROGNOSIS AND TREATMENT OF CANCER” (NOVAZOI THERANOSTICS, priority 2013, published 2015)",
  "type_in_all_cases": "cell-based",
  "key": {"HeLa cells [1]": {"system": "HeLa cells", "assay": "subG1 (hypodiploid) fraction by flow cytometry, HeLa cells", "experimental": "Trypsinized cells were resuspended in PBS at 10^6 cells/ml. Cells were then fixed by addition of ice-cold 70% ethanol. Ethanol-fixed cells were kept overnight at 4° C. before staining. Cells were pelleted and washed twice with PBS. Cell pellets were incubated for an hour at room temperature with mouse anti-MPM-2 antibody (Millipore, Mass., USA), followed by 1 h incubation with Alexa-488 anti-mouse secondary antibody (Life Technologies, NY, USA). Finally cells were washed, pelleted and resuspended in propidium iodide-containing isotonic buffer (0.1 mg/mL) and 0.5% Triton X-100. Cell cycle distribution was determined by flow cytometry using an LSR Fortessa Flow cytometer (BD Biosciences, CA, USA) and analyzed using Flowjo software (Tree Star, OR, USA). […] The duration, highest degree, and rapidity of onset of MA varied between drugs, drug concentrations, and cell lines (FIGS. 2A, 2B). In general, the maximum MA achieved was less pronounced in Nos- and PJ-treated cells (FIGS. 2A, 2B). Drug-induced onset of MA was corroborated by substantial increases in cyclin B1 levels in all cell lines (FIG. 2C). […] Instances where the subG1 fraction was elevated without cleaved caspase-3 may either represent caspase-independent cell death or the presence of hypodiploid cells whose fate is unclear."}, "231 cells": {"system": "231 cells", "assay": "Centrosome amplification (CA) by microscopy, 231 cells", "conditions": "for maximum extent of CA in mitotic cells: over 24 h", "experimental": "(§1) Consequently, CA was assessed in cultures treated with different concentrations of declustering drugs for 6, 12, 18, or 24 h and untreated controls via microscopy. […] The peak percent CA detected over 24 h is shown in FIG. 6 (only statistically significant (P<0.05) increases over control values are represented in the Figures). Representative confocal micrographs of CA in interphase and mitotic cells, both control and drug treated, are depicted in FIG. 7. […] To better understand the “potency” of drug-induced CA with time, the average fold change in CA over controls over 24 h was assessed (FIG. 5A), whereby the extent of CA across time points (i.e., 6, 12, 18, and 24 h) was averaged and then divided by the extent of CA in control (i.e., 0 h). […] For Nos and BN, there was no major difference in CA levels in interphase versus mitotic cells."}, "231, HeLa and PC3 cells": {"system": "231, HeLa and PC3 cells", "assay": "Centrosome amplification (CA) by microscopy, all cancer cell lines tested", "experimental": "Consequently, CA was assessed in cultures treated with different concentrations of declustering drugs for 6, 12, 18, or 24 h and untreated controls via microscopy. Centrosomes were identified by γ-tubulin and centrin-2 colocalization at discrete foci. […] The peak percent CA detected over 24 h is shown in FIG. 6 (only statistically significant (P<0.05) increases over control values are represented in the Figures). Representative confocal micrographs of CA in interphase and mitotic cells, both control and drug treated, are depicted in FIG. 7. No significant correlations between the degree of CA (FIG. 5A) and the expression levels of PLK4, Cyclin E, and Aurora A were found (FIG. 4).\nTo better understand the “potency” of drug-induced CA with time, the average fold change in CA over controls over 24 h was assessed (FIG. 5A), whereby the extent of CA across time points (i.e., 6, 12, 18, and 24 h) was averaged and then divided by the extent of CA in control (i.e., 0 h). All of the drugs at least doubled the peak extent of CA in all cell lines tested (FIG. 5A), although the final extent of CA could be small or large in magnitude depending on the initial centrosomal burden as shown in FIG. 4. […] The extent of CA was less in interphase cells, with maximum values of 31% and 87% for 10 and 25 μM RBN (FIG. 6A). […]"}, "HeLa cells [2]": {"system": "HeLa cells", "assay": "Centrosome amplification (CA) by microscopy, HeLa cells", "experimental": "as §1"}},
  "data": [
    {"substance": "reduced bromonoscapine [RBN]", "values": [
      {"measurement": "Peak subG1 percent over 48 h", "setting": "HeLa cells [1]; 10 μM", "result": 54.1, "unit": "%"},
      {"measurement": "maximum subG1 fraction relative to control", "setting": "HeLa cells [1]; 10 μM", "result": 9, "unit": "× control"},
      {"measurement": "Peak subG1 percent over 48 h", "setting": "HeLa cells [1]; 25 μM", "result": 75.6, "unit": "%"},
      {"measurement": "change of peak CA extent over control", "setting": "231 cells; 25 μM", "result": "only slightly more than doubled the peak CA extent"},
      {"measurement": "final extent of CA", "setting": "231 cells; 25 μM", "result": "around 90%"},
      {"measurement": "maximum extent of CA in interphase cells", "setting": "231 cells; 10 μM", "result": 31, "unit": "%"},
      {"measurement": "maximum extent of CA in interphase cells", "setting": "231 cells; 25 μM", "result": 87, "unit": "%"},
      {"measurement": "fold increase of CA over controls, mitotic cells", "setting": "231 cells; 10 μM", "result": "~2.5", "unit": "fold"},
      {"measurement": "maximum extent of CA in mitotic cells", "setting": "231 cells; 10 μM", "result": 56, "unit": "%"},
      {"measurement": "fold increase of CA over controls, mitotic cells", "setting": "231 cells; 25 μM", "result": "~2.0", "unit": "fold"},
      {"measurement": "maximum extent of CA in mitotic cells", "setting": "231 cells; 25 μM", "result": 96, "unit": "%"},
      {"measurement": "induction of CA", "setting": "231, HeLa and PC3 cells", "result": "induced CA in all three cell lines"},
      {"measurement": "peak extent of CA in interphase cells", "setting": "HeLa cells [2]; interphase, 10 μM", "result": 30.7, "unit": "%"},
      {"measurement": "peak / final extent of CA in interphase cells", "setting": "HeLa cells [2]; interphase, 25 μM", "result": 48.1, "unit": "%"},
      {"measurement": "cells having CA, mitotic cells", "setting": "HeLa cells [2]; 10 μM", "result": 78, "unit": "%"},
      {"measurement": "fold increase of CA, mitotic cells", "setting": "HeLa cells [2]; 10 μM", "result": "approximately 40 fold"},
      {"measurement": "cells having CA, mitotic cells", "setting": "HeLa cells [2]; 25 μM", "result": 42, "unit": "%"},
      {"measurement": "fold increase of CA, mitotic cells", "setting": "HeLa cells [2]; 25 μM", "result": "~20", "unit": "fold"}
    ]}
  ]
}
